Experimental data taken from PubChem BioAssay AID2060503 (Molecular Pharmacology Branch, DTP, NCI, 2025).

tested on: 817829-284-R-J1-PDC complex spheroids, viability; test: Anticancer human tumor 817829-284-R-J1-PDC patient-derived colon adenocarcinoma cell line growth inhibition [GQUAD]; settings: second compound 0.316 µM; first compound 0.316 µM; active compounds read low
Outline: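 Viability of tumor cells grown as complex spheroids with endothelial and stromal cells, exposed to drug combinations. Top concentration at or near clinical Cmax (else 10 microM), diluted in half-log increments.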
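Further: spheroids exposed to agents for 7 days before readout; percent viability relative to DMSO vehicle control taken as 100%.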

Q: With `CCCS(=O)(=O)Nc1ccc(F)c(C(=O)c2c[nH]c3ncc(-c4ccc(Cl)cc4)cc23)c1F` + Cc1cnc(CNC(=O)c2c(=O)c3ccc(N4CCCN(C)CC4)nc3n3c2sc2ccccc23)cn1 as the molecule, how does the viability, T/C read?
A: 17.1%

Q: Which viability, T/C does the source give for `Cc1[nH]c2ccccc2c1CCNCc1ccc(/C=C/C(=O)NO)cc1` + Cc1cnc(CNC(=O)c2c(=O)c3ccc(N4CCCN(C)CC4)nc3n3c2sc2ccccc23)cn1 here?
A: 0.05%

Q: With `O=C(NO)c1cnc(N2CCN(S(=O)(=O)c3ccc4ccccc4c3)CC2)nc1` + Cc1cnc(CNC(=O)c2c(=O)c3ccc(N4CCCN(C)CC4)nc3n3c2sc2ccccc23)cn1 as the molecule, how does the viability, T/C read?
A: 4.03%

same assay, conditions: second compound 0.316 µM; first compound 1 µM; active compounds read low

Q: Which viability, T/C does the source give for `C#Cc1c(F)ccc2cc(O)cc(-c3ncc4c(N5CC6CCC(C5)N6)nc(OCC56CCCN5CC(F)C6)nc4c3F)c12` (stereo unspecified) + Cc1cnc(CNC(=O)c2c(=O)c3ccc(N4CCCN(C)CC4)nc3n3c2sc2ccccc23)cn1 here?
A: 24.1%

Q: How did the viability, T/C turn out when `C=CCn1c(=O)c2cnc(Nc3ccc(N4CCN(C)CC4)cc3)nc2n1-c1cccc(C(C)(C)O)n1` + Cc1cnc(CNC(=O)c2c(=O)c3ccc(N4CCCN(C)CC4)nc3n3c2sc2ccccc23)cn1 was run?
A: 10.6%

Q: Which viability, T/C does the source give for `CC(C)(O)C1CCC(Nc2ccc3ncc(-c4cccc(C(F)(F)F)c4)n3n2)CC1` (stereo unspecified) + Cc1cnc(CNC(=O)c2c(=O)c3ccc(N4CCCN(C)CC4)nc3n3c2sc2ccccc23)cn1 here?
A: 16.4%

Q: How did the viability, T/C turn out when `CCCS(=O)(=O)Nc1ccc(F)c(C(=O)c2c[nH]c3ncc(-c4ccc(Cl)cc4)cc23)c1F` + Cc1cnc(CNC(=O)c2c(=O)c3ccc(N4CCCN(C)CC4)nc3n3c2sc2ccccc23)cn1 was run?
A: 16.7%

Q: With `O=C(NO)c1cnc(N2CCN(S(=O)(=O)c3ccc4ccccc4c3)CC2)nc1` + Cc1cnc(CNC(=O)c2c(=O)c3ccc(N4CCCN(C)CC4)nc3n3c2sc2ccccc23)cn1 as the molecule, how does the viability, T/C read?
A: 0.05%

same assay, conditions: second compound 0.316 µM; first compound 3.16 µM; active compounds read low

Q: With `C#Cc1c(F)ccc2cc(O)cc(-c3ncc4c(N5CC6CCC(C5)N6)nc(OCC56CCCN5CC(F)C6)nc4c3F)c12` (stereo unspecified) + Cc1cnc(CNC(=O)c2c(=O)c3ccc(N4CCCN(C)CC4)nc3n3c2sc2ccccc23)cn1 as the molecule, how does the viability, T/C read?
A: 29.4%

Q: `C=CCn1c(=O)c2cnc(Nc3ccc(N4CCN(C)CC4)cc3)nc2n1-c1cccc(C(C)(C)O)n1` + Cc1cnc(CNC(=O)c2c(=O)c3ccc(N4CCCN(C)CC4)nc3n3c2sc2ccccc23)cn1 was tested. Which viability, T/C did it give?
A: 8.59%

Q: How did the viability, T/C turn out when `CC(C)(O)C1CCC(Nc2ccc3ncc(-c4cccc(C(F)(F)F)c4)n3n2)CC1` (stereo unspecified) + Cc1cnc(CNC(=O)c2c(=O)c3ccc(N4CCCN(C)CC4)nc3n3c2sc2ccccc23)cn1 was run?
A: 1.35%

Q: Which viability, T/C does the source give for `CCCS(=O)(=O)Nc1ccc(F)c(C(=O)c2c[nH]c3ncc(-c4ccc(Cl)cc4)cc23)c1F` + Cc1cnc(CNC(=O)c2c(=O)c3ccc(N4CCCN(C)CC4)nc3n3c2sc2ccccc23)cn1 here?
A: 15.7%

Q: With `O=C(NO)c1cnc(N2CCN(S(=O)(=O)c3ccc4ccccc4c3)CC2)nc1` + Cc1cnc(CNC(=O)c2c(=O)c3ccc(N4CCCN(C)CC4)nc3n3c2sc2ccccc23)cn1 as the molecule, how does the viability, T/C read?
A: 0.02%

same assay, conditions: second compound 0.316 µM; first compound 10 µM; active compounds read low

Q: For `C#Cc1c(F)ccc2cc(O)cc(-c3ncc4c(N5CC6CCC(C5)N6)nc(OCC56CCCN5CC(F)C6)nc4c3F)c12` (stereo unspecified) + Cc1cnc(CNC(=O)c2c(=O)c3ccc(N4CCCN(C)CC4)nc3n3c2sc2ccccc23)cn1, which viability, T/C is on record?
A: 27%

Q: With `C=CCn1c(=O)c2cnc(Nc3ccc(N4CCN(C)CC4)cc3)nc2n1-c1cccc(C(C)(C)O)n1` + Cc1cnc(CNC(=O)c2c(=O)c3ccc(N4CCCN(C)CC4)nc3n3c2sc2ccccc23)cn1 as the molecule, how does the viability, T/C read?
A: 7.12%

Q: How did the viability, T/C turn out when `CC(C)(O)C1CCC(Nc2ccc3ncc(-c4cccc(C(F)(F)F)c4)n3n2)CC1` (stereo unspecified) + Cc1cnc(CNC(=O)c2c(=O)c3ccc(N4CCCN(C)CC4)nc3n3c2sc2ccccc23)cn1 was run?
A: 3.38%

Q: For `CCCS(=O)(=O)Nc1ccc(F)c(C(=O)c2c[nH]c3ncc(-c4ccc(Cl)cc4)cc23)c1F` + Cc1cnc(CNC(=O)c2c(=O)c3ccc(N4CCCN(C)CC4)nc3n3c2sc2ccccc23)cn1, which viability, T/C is on record?
A: 10.7%

Q: With `O=C(NO)c1cnc(N2CCN(S(=O)(=O)c3ccc4ccccc4c3)CC2)nc1` + Cc1cnc(CNC(=O)c2c(=O)c3ccc(N4CCCN(C)CC4)nc3n3c2sc2ccccc23)cn1 as the molecule, how does the viability, T/C read?
A: 0.06%

same assay, conditions: second compound 1 µM; first compound 0.000999 µM; active compounds read low

Q: With `Cc1[nH]c2ccccc2c1CCNCc1ccc(/C=C/C(=O)NO)cc1` + Cc1cnc(CNC(=O)c2c(=O)c3ccc(N4CCCN(C)CC4)nc3n3c2sc2ccccc23)cn1 as the molecule, how does the viability, T/C read?
A: 18.3%

same assay, conditions: second compound 1 µM; first compound 0.00316 µM; active compounds read low

Q: `Cc1[nH]c2ccccc2c1CCNCc1ccc(/C=C/C(=O)NO)cc1` + Cc1cnc(CNC(=O)c2c(=O)c3ccc(N4CCCN(C)CC4)nc3n3c2sc2ccccc23)cn1 was tested. Which viability, T/C did it give?
A: 20.6%

same assay, conditions: second compound 1 µM; first compound 0.00999 µM; active compounds read low

Q: How did the viability, T/C turn out when `Cc1[nH]c2ccccc2c1CCNCc1ccc(/C=C/C(=O)NO)cc1` + Cc1cnc(CNC(=O)c2c(=O)c3ccc(N4CCCN(C)CC4)nc3n3c2sc2ccccc23)cn1 was run?
A: 15.7%

same assay, conditions: second compound 1 µM; first compound 0.0316 µM; active compounds read low

Q: With `C#Cc1c(F)ccc2cc(O)cc(-c3ncc4c(N5CC6CCC(C5)N6)nc(OCC56CCCN5CC(F)C6)nc4c3F)c12` (stereo unspecified) + Cc1cnc(CNC(=O)c2c(=O)c3ccc(N4CCCN(C)CC4)nc3n3c2sc2ccccc23)cn1 as the molecule, how does the viability, T/C read?
A: 17.9%

Q: With `C=CCn1c(=O)c2cnc(Nc3ccc(N4CCN(C)CC4)cc3)nc2n1-c1cccc(C(C)(C)O)n1` + Cc1cnc(CNC(=O)c2c(=O)c3ccc(N4CCCN(C)CC4)nc3n3c2sc2ccccc23)cn1 as the molecule, how does the viability, T/C read?
A: 16.9%

Q: `CC(C)(O)C1CCC(Nc2ccc3ncc(-c4cccc(C(F)(F)F)c4)n3n2)CC1` (stereo unspecified) + Cc1cnc(CNC(=O)c2c(=O)c3ccc(N4CCCN(C)CC4)nc3n3c2sc2ccccc23)cn1 was tested. Which viability, T/C did it give?
A: 16.6%

Q: Which viability, T/C does the source give for `CCCS(=O)(=O)Nc1ccc(F)c(C(=O)c2c[nH]c3ncc(-c4ccc(Cl)cc4)cc23)c1F` + Cc1cnc(CNC(=O)c2c(=O)c3ccc(N4CCCN(C)CC4)nc3n3c2sc2ccccc23)cn1 here?
A: 16.7%

Q: Which viability, T/C does the source give for `Cc1[nH]c2ccccc2c1CCNCc1ccc(/C=C/C(=O)NO)cc1` + Cc1cnc(CNC(=O)c2c(=O)c3ccc(N4CCCN(C)CC4)nc3n3c2sc2ccccc23)cn1 here?
A: 13.7%

Q: For `O=C(NO)c1cnc(N2CCN(S(=O)(=O)c3ccc4ccccc4c3)CC2)nc1` + Cc1cnc(CNC(=O)c2c(=O)c3ccc(N4CCCN(C)CC4)nc3n3c2sc2ccccc23)cn1, which viability, T/C is on record?
A: 17.5%

same assay, conditions: second compound 1 µM; first compound 0.0999 µM; active compounds read low

Q: How did the viability, T/C turn out when `Cc1[nH]c2ccccc2c1CCNCc1ccc(/C=C/C(=O)NO)cc1` + Cc1cnc(CNC(=O)c2c(=O)c3ccc(N4CCCN(C)CC4)nc3n3c2sc2ccccc23)cn1 was run?
A: 3.62%

same assay, conditions: second compound 1 µM; first compound 0.1 µM; active compounds read low

Q: Which viability, T/C does the source give for `C#Cc1c(F)ccc2cc(O)cc(-c3ncc4c(N5CC6CCC(C5)N6)nc(OCC56CCCN5CC(F)C6)nc4c3F)c12` (stereo unspecified) + Cc1cnc(CNC(=O)c2c(=O)c3ccc(N4CCCN(C)CC4)nc3n3c2sc2ccccc23)cn1 here?
A: 23.4%

Q: How did the viability, T/C turn out when `C=CCn1c(=O)c2cnc(Nc3ccc(N4CCN(C)CC4)cc3)nc2n1-c1cccc(C(C)(C)O)n1` + Cc1cnc(CNC(=O)c2c(=O)c3ccc(N4CCCN(C)CC4)nc3n3c2sc2ccccc23)cn1 was run?
A: 20.6%

Q: `CC(C)(O)C1CCC(Nc2ccc3ncc(-c4cccc(C(F)(F)F)c4)n3n2)CC1` (stereo unspecified) + Cc1cnc(CNC(=O)c2c(=O)c3ccc(N4CCCN(C)CC4)nc3n3c2sc2ccccc23)cn1 was tested. Which viability, T/C did it give?
A: 21.5%
